Converted amounts (≈) assume the structure as drawn. Like-named read-outs stand apart in the source and are kept apart here.
Experiments:
in vitro = details: human; for CC50 at 5 days: uninfected MT-4 cells
physchem = details: 23 °C, thermodynamic from solid; for solubility thermodynamic: fassif; for solubility thermodynamic at 24 h: FaSSIF
HIV-1 (IIIB) = experiment: microbe, parasite or virus in culture; format: cell-based
[1] = Human immunodeficiency virus 1, IIIB, MT4, 120 h, read-out: MT4 EC50 (nM)
[2] = Human immunodeficiency virus 1, MT4, 120 h, HIV-1 (IIIB) replication in MT-4 cells, 5 days incubation, Cell Titer Glo, read-out: MT4 EC50

| solubility thermodynamic at 24 h (physchem) | EC50 (HIV-1 (IIIB); [2]) | SMILES | CC50 (in vitro) | solubility thermodynamic (physchem) | EC50 (HIV-1 (IIIB); [1]) | CC50 at 5 days (in vitro) |
| --- | --- | --- | --- | --- | --- | --- |
|  |  | CC1=NO[C@@]2(CC[C@H](C)N3C[C@H]2n2cc(C(=O)NCc4ccc(F)cc4F)c(=O)c(OC(=O)N(C)c4ncccc4COP(=O)(O)O)c2C3=O)C1 [Compound 1, (3′S,5S,7′R)-10′-((2,4-difluorobenzyl)carbamoyl)-3,3′-dimethyl-1′,11′-dioxo-1′,4′,5′,11′-tetrahydro-3′H,4H,7′H-spiro[isoxazole-5,6′-[2,7]methanopyrido[1,2-a][1,4]diazonin]-12′-yl methyl(3-((phosphonooxy)methyl)pyridin-2-yl)carbamate] | 15900 nM | 4900 µg/mL (≈ 6.71 mM) | 3.48 nM |  |
| 4950 µg/mL (≈ 6.51 mM) | 1.49 nM | CC1=NO[C@@]2(CC[C@H](C)N3C[C@H]2n2cc(C(=O)NCc4ccc(F)cc4F)c(=O)c(OCOC(=O)N(C)c4ncccc4COP(=O)(O)O)c2C3=O)C1 [Compound 2, (((3′S,5S,7′R)-10′-((2,4-difluorobenzyl)carbamoyl)-3,3′-dimethyl-1′,11′-dioxo-1′,4′,5′,11′-tetrahydro-3′H,4H,7′H-spiro[isoxazole-5,6′-[2,7]methanopyrido[1,2-a][1,4]diazonin]-12′-yl)oxy)methyl methyl(3-((phosphonooxy)methyl)pyridin-2-yl)carbamate] |  |  |  | 10200 nM |
| 5410 µg/mL (≈ 6.97 mM) | 2.15 nM | COC1=NO[C@@]2(CC[C@H](C)N3C[C@H]2n2cc(C(=O)NCc4ccc(F)cc4F)c(=O)c(OCOC(=O)N(C)c4ncccc4COP(=O)(O)O)c2C3=O)C1 [Compound 3, (((3′S,5S,7′R)-10′-((2,4-difluorobenzyl)carbamoyl)-3-methoxy-3′-methyl-1′,11′-dioxo-1′,4′,5′,11′-tetrahydro-3′H,4H,7′H-spiro[isoxazole-5,6′-[2,7]methanopyrido[1,2-a][1,4]diazonin]-12′-yl)oxy)methylmethyl(3-((phosphonooxy)methyl)pyridin-2-yl)carbamate] |  |  |  | 12600 nM |
|  |  | CC1=NO[C@@]2(CC[C@H](C)N3C[C@H]2n2cc(C(=O)NCc4ccc(F)cc4F)c(=O)c(OC(=O)N(C)c4ncc(C(=O)O)cc4COP(=O)(O)O)c2C3=O)C1 [Compound 4, 6-(((((3′S,5S,7′R)-10′-((2,4-difluorobenzyl)carbamoyl)-3,3′-dimethyl-1′,11′-dioxo-1′,4′,5′,11′-tetrahydro-3′H,4H,7′H-spiro[isoxazole-5,6′-[2,7]methanopyrido[1,2-a][1,4]diazonin]-12′-yl)oxy)carbonyl)(methyl)amino)-5-((phosphonooxy)methyl)nicotinic acid] | ≥ 50000 nM | 4800 µg/mL (≈ 6.2 mM) | 14.8 nM |  |
|  |  | CC1=NO[C@@]2(CC[C@H](C)N3C[C@H]2n2cc(C(=O)NCc4ccc(F)cc4F)c(=O)c(OC(=O)N(C)c4ncccc4CN(CC(=O)OC(C)(C)C)C(=O)OCOP(=O)(O)O)c2C3=O)C1 [Compound 5, tert-butyl N-((2-(((((3′S,5S,7′R)-10′-((2,4-difluorobenzyl)carbamoyl)-3,3′-dimethyl-1′,11′-dioxo-1′,4′,5′,11′-tetrahydro-3′H,4H,7′H-spiro[isoxazole-5,6′-[2,7]methanopyrido[1,2-a][1,4]diazonin]-12′-yl)oxy)carbonyl)(methyl)amino)pyridin-3-yl)methyl)-N-(((phosphonooxy)methoxy)carbonyl)glycinate] | 10300 nM | 4010 µg/mL (≈ 4.37 mM) | 1.24 nM |  |
|  |  | CC1=NO[C@@]2(CC[C@H](C)N3C[C@H]2n2cc(C(=O)NCc4ccc(F)cc4F)c(=O)c(OC(=O)N(C)c4ncccc4CN(CC(=O)O)C(=O)OCOP(=O)(O)O)c2C3=O)C1 [Compound 6, N-((2-(((((3′S,5S,7′R)-10′-((2,4-difluorobenzyl)carbamoyl)-3,3′-dimethyl-1′,11′-dioxo-1′,4′,5′,11′-tetrahydro-3′H,4H,7′H-spiro[isoxazole-5,6′-[2,7]methanopyrido[1,2-a][1,4]diazonin]-12′-yl)oxy)carbonyl)(methyl)amino)pyridin-3-yl)methyl)-N-(((phosphonooxy)methoxy)carbonyl)glycine] | 10100 nM | 4810 µg/mL (≈ 5.58 mM) | 0.917 nM |  |
| 4660 µg/mL (≈ 5.22 mM) | 1.48 nM | CC1=NO[C@@]2(CC[C@H](C)N3C[C@H]2n2cc(C(=O)NCc4ccc(F)cc4F)c(=O)c(OCOC(=O)N(C)c4ncccc4CN(CC(=O)O)C(=O)OCOP(=O)(O)O)c2C3=O)C1 [Compound 7, N-((2-((((((3′S,5S,7′R)-10′-((2,4-difluorobenzyl)carbamoyl)-3,3′-dimethyl-1′,11′-dioxo-1′,4′,5′,11′-tetrahydro-3′H,4H,7′H-spiro[isoxazole-5,6′-[2,7]methanopyrido[1,2-a][1,4]diazonin]-12′-yl)oxy)methoxy)carbonyl)(methyl)amino)-pyridin-3-yl)methyl)-N-(((phosphonooxy)methoxy)carbonyl)glycine] |  |  |  | 10800 nM |
|  |  | CC1=NO[C@@]2(CC[C@H](C)N3C[C@H]2n2cc(C(=O)NCc4ccc(F)cc4F)c(=O)c(OC(=O)OCc4ccccc4OP(=O)(O)O)c2C3=O)C1 [Compound 32, (3′S,5S,7′R)-10′-((2,4-difluorobenzyl)carbamoyl)-3,3′-dimethyl-1′,11′-dioxo-1′,4′,5′,11′-tetrahydro-3′H,4H,7′H-spiro[isoxazole-5,6′-[2,7]methanopyrido[1,2-a][1,4]diazonin]-12′-yl (2-(phosphonooxy)benzyl) carbonate] |  | 1330 µg/mL (≈ 1.86 mM) |  |  |
|  | 2.05 nM | CC1=NO[C@@]2(CC[C@H](C)N3C[C@H]2n2cc(C(=O)NCc4ccc(F)cc4F)c(=O)c(OCOC(=O)O[C@H]4CCCCC[C@@H]4OP(=O)(O)O)c2C3=O)C1 [Compound 77, (((3′S,5S,7′R)-10′-((2,4-difluorobenzyl)carbamoyl)-3,3′-dimethyl-1′,11′-dioxo-1′,4′,5′,11′-tetrahydro-3′H,4H,7′H-spiro[isoxazole-5,6′-[2,7]methanopyrido[1,2-a][1,4]diazonin]-12′-yl)oxy)methyl ((1S,2S)-2-(phosphonooxy)cycloheptyl) carbonate] |  |  |  | 19400 nM |
|  |  | CC1=NO[C@@]2(CC[C@H](C)N3C[C@H]2n2cc(C(=O)NCc4ccc(F)cc4F)c(=O)c(OCOC(=O)CC(C)(C)c4c(CC(=O)NCP(=O)(O)O)cc(C)cc4OP(=O)(O)O)c2C3=O)C1 [Compound 81, ((2-(2-(4-((((3′S,5S,7′R)-10′-((2,4-difluorobenzyl)carbamoyl)-3,3′-dimethyl-1′,11′-dioxo-1′,4′,5′,11′-tetrahydro-3′H,4H,7′H-spiro[isoxazole-5,6′-[2,7]methanopyrido[1,2-al][1,4]diazonin]-12′-yl)oxy)methoxy)-2-methyl-4-oxobutan-2-yl)-5-methyl-3-(phosphonooxy)phenyl)acetamido)methyl)phosphonic acid] | 14400 nM |  | 2.09 nM |  |
|  |  | CC1=NO[C@@]2(CC[C@H](C)N3C[C@H]2n2cc(C(=O)NCc4ccc(F)cc4F)c(=O)c(OC(=O)N(C)c4ncccc4CN(CCC(F)(F)F)C(=O)OCOP(=O)(O)O)c2C3=O)C1 [Compound 82, (3′S,5S,7′R)-10′-((2,4-difluorobenzyl)carbamoyl)-3,3′-dimethyl-1′,11′-dioxo-1′,4′,5′,11′-tetrahydro-3′H,4H,7′H-spiro[isoxazole-5,6′-[2,7]methanopyrido[1,2-a][1,4]diazonin]-12′-yl methyl(3-(((((phosphonooxy)methoxy)carbonyl)(3,3,3-trifluoropropyl)amino)methyl)pyridin-2-yl)carbamate] | 8520 nM |  | 2.17 nM |  |
|  |  | COCCN(Cc1cccnc1N(C)C(=O)Oc1c2n(cc(C(=O)NCc3ccc(F)cc3F)c1=O)[C@@H]1CN(C2=O)[C@@H](C)CC[C@]12CC(C)=NO2)C(=O)OCOP(=O)(O)O [Compound 83, (3′S,5S,7′R)-10′-((2,4-difluorobenzyl)carbamoyl)-3,3′-dimethyl-1′,11′-dioxo-1′,4′,5′,11′-tetrahydro-3′H,4H,7′H-spiro[isoxazole-5,6′-[2,7]methanopyrido[1,2-a][1,4]diazonin]-12′-yl (3-(((2-methoxyethyl)(((phosphonooxy)methoxy)carbonyl)amino)methyl)pyridin-2-yl)(methyl)carbamate] | 13200 nM |  | 1.36 nM |  |
|  | 5.07 nM | CCCCCCCCCCCCCC(=O)OCc1ccccc1C(=O)Oc1c2n(cc(C(=O)NCc3ccc(F)cc3F)c1=O)[C@@H]1CN(C2=O)[C@@H](C)CC[C@]12CC(OC)=NO2 [Compound 91, (3′S,5S,7′R)-10′-((2,4-difluorobenzyl)carbamoyl)-3-methoxy-3′-methyl-1′,11′-dioxo-1′,4′,5′,11′-tetrahydro-3′H,4H,7′H-spiro[isoxazole-5,6′-[2,7]methanopyrido[1,2-a][1,4]diazonin]-12′-yl 2-((tetradecanoyloxy)methyl)benzoate] |  |  |  | ≥ 50000 nM |
|  | 3.49 nM | CCCCCCCCCCCCCC(=O)Oc1ccc(CC(=O)Oc2c3n(cc(C(=O)NCc4ccc(F)cc4F)c2=O)[C@@H]2CN(C3=O)[C@@H](C)CC[C@]23CC(OC)=NO3)cc1 [Compound 95, [4-[2-[(1R,10S,13S)-4-[(2,4-difluorophenyl)methylcarbamoyl]-3′-methoxy-10-methyl-5,8-dioxo-spiro[2,9-diazatricyclo[7.4.1.02,7]tetradeca-3,6-diene-13,5′-4H-isoxazole]-6-yl]oxy-2-oxo-ethyl]phenyl] tetradecanoate] |  |  |  | ≥ 50000 nM |
|  | 1.91 nM | COC1=NO[C@@]2(CC[C@H](C)N3C[C@H]2n2cc(C(=O)NCc4ccc(F)cc4F)c(=O)c(OCc4oc(=O)oc4C)c2C3=O)C1 [Compound 103, (3′S,5S,7′R)—N-(2,4-difluorobenzyl)-3-methoxy-3′-methyl-12′-((5-methyl-2-oxo-1,3-dioxol-4-yl)methoxy)-1′,11′-dioxo-1′,4′,5′,11′-tetrahydro-3′H,4H,7′H-spiro[isoxazole-5,6′-[2,7]methanopyrido[1,2-a][1,4]diazonine]-10′-carboxamide] |  |  |  | 18900 nM |

Source: patent publication US20250127801A1, “BRIDGED TRICYCLIC CARBAMOYLPYRIDONE COMPOUNDS AND USES THEREOF” (priority 2023, published 2025)
